Results from PMC13242511, “Disrupting Notch signalling by a small molecule inhibiting dihydroorotate dehydrogenase activity” (Scientific Reports, 2026).
Where two headings read alike, the source gives them in different places.

Assays:
[1] = tested on: mNotch1ΔE fused to an HiBiT tag; test: HiBit reporter assay; assay type: cell-based, mouse; design: key to protein stability: + indicates that the compound had an effect; -: − indicates that there was no significant effect in the respective assay; details: for protein stability: summary Fig. 8E
Procedure: The Notch1ΔE construct used to generate the Notch reporter cell line (see above) was first cloned in frame into the pBiT3.2-C [TK/HiBiT/Blast] Vector (Promega) and then stably introduced into HEK293T wild type cells, using Lipofectamine transfection, as described. Analogous to the Notch reporter cell line, Blasticidin was used as a selection marker (0.1 mg/ml) and stable cell lines with robust luciferase signals were generated. […] A clone (#D2) with an empty HiBit vector stably integrated was used as control.
20 µl containing 4,000 cells were seeded on 384-well pre-spotted compound plates (Greiner, cat #781080). Cells were incubated for 24 h and viability was determined using CellTiter-Fluor (Promega, cat # G6080), following the manufacturer’s instructions. Next, cells were subjected to the HiBit assay according to the manufacturer’s instructions (Promega, cat # N3030). Prior to cell lysis, the tissue culture plates were allowed to cool down to room temperate. Fluorescence and luminescence signals were recorded using a SpectraMax i3 (Molecular devices) and signals were read at different time-points to determine optimal signal stability. Cells cultivated only with DMSO were used as a reference to determine effects of compounds. MG132, Bafilomycin A1 and the GSI RO4929097 served as additional controls. Celastrol was used to determine the assay window, and a minimum of two technical replicates were measured per assay.

DHODH = biological target: T1, DHODH (Homo sapiens, UniProt Q02127); test: DHODH enzyme activity assay (Resorufin fluorescence, Reaction Biology); assay type: biochemical
T1 construct: purchased Reaction Biology (contract assay)
Procedure: DHODH enzyme activity was determined via fluorescence-based quantification (Resorufin fluorescence as endpoint measurement) at Reaction Biology. Reference compound BAY2402234 was measured in singletons in two biological replicates and compounds were measured in technical replicates within the indicated dose-ranges. Values were normalized to DMSO control and dose–response curves were fitted using the log(inhibitor) versus response – Variable slope (model: Y = Bottom + (Top–Bottom)/(1 + 10^((LogIC50-X)*HillSlope)) equation.

JURKAT cells = test: Growth inhibition, metabolic activity (CellTiter-Glo); assay type: cell-based; details: Homo sapiens, six days, read-out: approximated IC50, growth (metabolic activity)
Excerpt: (§1) We next investigated whether compounds A-E affected growth and viability of cell lines from T-cell acute lymphoblastic leukaemia (T-ALL) and breast cancer, two tumour types in which elevated Notch signalling has been implicated in tumorigenesis. […] When testing analogues of compounds B and C, five of the seven B analogues and one of the two C analogues produced dose–response curves and IC50s, which however were higher compared to the original hits (Supplemental Fig. 5A; IC50s are presented in Supplemental Table 6).
(§2) Compounds were spotted on white 384-well tissue culture plates (Greiner, cat #781080) using an Echo 525 Acoustic liquid handler (Labcyte). Cells were grown to 80% confluence, detached if required, counted and 20 µl containing 2000–4000 cells per well was then seeded in each well and cultivated for three (4,000 cells seeded) and six days (2,000 cells seeded). […] Luciferase activity (reading out metabolic activity) was determined using the CellTiter-Glo 2.0 kit (CTG, Promega, cat #G9242) following the manufacturer’s instructions and luminescence was measured on a SpectraMaxi3 or Varioscan plate reader (Molecular Devices, Thermofisher).

RPMI-8402 cells = test: as above; assay type: cell-based; details: Homo sapiens; RPMI-8402, six days; read-out: approximated IC50, growth (metabolic activity)
Excerpt: as §1, §2

HEK293T cells = test: as above; assay type: cell-based; details: six days, Supplemental Fig. 5E
Procedure: We also tested three analogues to compound B and one analogue to compound C. […] To assess the effects of compound A-E in a cell line with very low levels of Notch signalling we repeated the growth inhibition assay in HEK293T cells.
as §2

[2] = Fig. 7B, read-out: IC50s DHODH assay: IC50
[3] = dose-range [M] 4.00E-05- 2.03E-09, 3 steps
[4] = dose-range [M] 4.00E-05- 2.03E-09, 3 steps, read-out: IC50

T1 sequence (Q02127 whole entry): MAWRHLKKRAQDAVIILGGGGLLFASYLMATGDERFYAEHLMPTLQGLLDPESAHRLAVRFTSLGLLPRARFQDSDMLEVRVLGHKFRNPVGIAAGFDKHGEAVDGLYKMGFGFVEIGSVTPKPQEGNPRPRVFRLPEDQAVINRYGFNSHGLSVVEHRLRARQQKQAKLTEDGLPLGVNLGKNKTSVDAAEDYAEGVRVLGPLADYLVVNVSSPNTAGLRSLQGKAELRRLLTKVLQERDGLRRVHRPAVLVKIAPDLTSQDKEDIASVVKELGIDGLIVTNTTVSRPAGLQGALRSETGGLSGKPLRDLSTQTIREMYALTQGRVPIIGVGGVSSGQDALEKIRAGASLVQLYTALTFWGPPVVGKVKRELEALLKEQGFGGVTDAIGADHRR

Compound	protein stability [1]	IC50s DHODH assay: Hill-Slope (DHODH; Fig. 7B)	IC50 (DHODH; [2])	Hill-slope (DHODH; [3])	IC50 (DHODH; [4])	IC50 (JURKAT cells)	IC50 (RPMI-8402 cells)	growth inhibitory effect (HEK293T cells)	HiBiT luciferase signal ([1]; 24 h, 14-point dose-response, Supplemental Fig. 8D,G)	DHODH enzyme activity (in words) (DHODH; Fig. 7B)	IC50s DHODH assay: IC50 (DHODH; Fig. 7B)	IC50 (DHODH; broader dose range, Fig. 7D, read-out: IC50, relative DHODH activity)	LogIC50 (DHODH; [3])	DHODH assay (DHODH; overview in comparison to compound C, Supplemental Fig. 9)
Cc1ccc2[nH]c3c(c2c1)CCOC31CCN(Cc2ccccc2-c2ccccc2)CC1 [compound B]	+	-5.7	2.2e-06 M	-5.7	2.2e-06 M	300 nM	500 nM							
CCc1c(C(=O)N(C)Cc2cnn(C(C)C)c2)[nH]c2ccccc12 [compound A]	-	-4.5	2.86e-05 M	-4.5	2.9e-05 M			did not exert a growth inhibitory effect						
CC(C)(C)c1ccc(Oc2ccc(N)cn2)cc1 [CB-103, reference compound]						1700 nM	900 nM							
COc1cccc(CNc2ccc(N3CCCCC3)cc2)c1OCc1cccs1 [compound C]	+	-15.6		-15.5		4300 nM	600 nM		dose-dependent decrease of luciferase signal	appeared to reduce DHODH enzyme activity across the dose response range	indeterminate	1.01e-08 M	Unstable	active
Cc1nn(-c2nc3ccccc3s2)c(O)c1C1OC(=O)c2ccccc21 (stereo not drawn) [compound E]	-	-4.4		-4.4	3.7e-05 M			did not exert a growth inhibitory effect						
NC(=O)c1c(NC(=O)NCc2cccnc2)sc2c1CCC2 [compound D]	-	-5.0		-5.0	9.6e-06 M			did not exert a growth inhibitory effect						
